Results taken from US20260124201A1, “CYCLOPENTANE COMPOUND” (Kissei Pharmaceutical Co., Ltd., priority 2022, published 2026).

Each compound was assayed against T1, human OX2R (Homo sapiens, UniProt O43614) (assay: Measurement of OX2R agonist activity (intracellular calcium concentration change, Fluo4-AM, FDSS 7000)). Settings: compound concentration 10 μM; human OX2R-expressing CHO-K1 cells; 1 μM human orexin A peptide = 100%, medium alone = 0%.
T1 construct: expressed in transfected cells
T1 sequence (O43614 1-444): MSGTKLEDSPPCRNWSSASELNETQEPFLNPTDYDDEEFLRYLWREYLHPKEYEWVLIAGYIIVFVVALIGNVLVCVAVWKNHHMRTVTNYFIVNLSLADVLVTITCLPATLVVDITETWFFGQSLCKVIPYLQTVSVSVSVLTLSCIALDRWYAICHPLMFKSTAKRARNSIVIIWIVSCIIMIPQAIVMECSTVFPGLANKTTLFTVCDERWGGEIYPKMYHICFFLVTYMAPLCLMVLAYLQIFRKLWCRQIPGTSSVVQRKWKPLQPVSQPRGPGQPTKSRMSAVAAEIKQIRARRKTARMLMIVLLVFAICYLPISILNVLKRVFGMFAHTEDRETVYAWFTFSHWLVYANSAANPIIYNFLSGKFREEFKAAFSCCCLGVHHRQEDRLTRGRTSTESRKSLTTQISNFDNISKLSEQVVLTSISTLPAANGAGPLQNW
Format: cell-based
From the text: The following abbreviations in the description, the figures and the tables have the following meanings, respectively. • AZADOL (registered trademark): 2-Hydroxy-2-azaadamantane • Boc2O: di-tert-butyl dicarbonate • DIPEA: N,N-diisopropylethylamine • DCM: dichloromethane • DMAP: 4-dimethylaminopyridine • DMF: N,N-dimethylformamide • DMSO: dimethylsulfoxide • Deoxo-Fluor: bis(2-methoxyethyl)-aminosulfur trifluoride • HATU: O-(7-azabenzotriazol-1-yl)-N,N,N′,N′-tetramethyluronium hexafluorophosphate • LDA: lithium diisopropylamide • MeCN: acetonitrile • Me4tBuXPhos: 2-di-tert-butylphosphino-3,4,5,6-tetramethyl-2′,4′,6′-triisopropyl-1,1′-biphenyl • MTBE: methyl tert-butyl ether • NMP: N-methylpyrrolidone • PdCl2(PPh3)2: dichlorobis(triphenylphosphine)palladium(II) • Pd(dba)2: bis(dibenzylideneacetone)palladium(0) • Pd2(dba)3: tris(dibenzylideneacetone)dipalladium(0) • Pd(dppf)Cl2: [1,1′-bis(diphenylphosphino)ferrocene]dichloropalladium(II) • Pd(PPh3)4: tetrakis(triphenylphosphine)palladium(0) • TEA: triethylamine • TFA: trifluoroacetic acid • THF: tetrahydrofuran • Xphos: 2-dicyclohexylphosphino-2′,4′,6′-triisopropylbiphenyl • Xphos Pd G3: (2-dicyclohexylphosphino-2′,4′,6′-triisopropyl-1,1′-biphenyl)[2-(2′-amino-1,1′-biphenyl)]palladium(II) methanesulfonic acid salt • 10% Pd/C: Palladium 10% on Carbon (wetted with ca. 55% water) • APS: aminopropylated silica gel • ODS: octadecyl-silylated silica gel • Method A: column chromatography with an aminopropylated silica gel column followed by a silica gel column • Chiral preparative column chromatography: chiral preparative column chromatography using YMC CHIRALART Cellulose-SB • Ref. No.: Reference Example Number • Str.: structural formula • Ex. No.: Example Number • Phys. data: physical data • ^1H-NMR: hydrogen nuclear magnetic resonance spectrum • CDCl3: chloroform-d1 • MS: mass spectrometry (The measured values in the tables were measured by electrospray ionization or multiionization using electrospray ionization-atmospheric pressure chemical ionization.) • Act.: activation rate of test substance at a compound concentration of 10 μM calculated by setting the fluorescence intensity obtained when human orexin A peptide was added at a concentration of 1 μM as 100% and the fluorescence intensity obtained when the medium alone was added as 0% • CHO: Chinese hamster ovary • HEPES: 2-[4-(2-hydroxyethyl)-1-piperazinyl]ethanesulfonic acid
A human OX2R sequence (Accession No. NM_001526.4) was inserted into the multiple cloning site of pcDNA3.4 (Life Technologies Japan Ltd.) to clone a plasmid vector for human OX2R expression. The plasmid was introduced into CHO-K1 cells using Lipofectamine 2000 (Life Technologies Japan Ltd.). Two days later, the transgenic CHO-K1 cells were passaged into 175T flasks and cultured selectively for 6 days. As a selection medium, Ham's F-12 Nutrient Mix (Life Technologies Japan Ltd.), containing Geneticin (registered trademark) (Life Technologies Japan Ltd.) at a final concentration of 1 mg/mL and inactivated fetal bovine serum (Biowest) at a final concentration of 10%, was used. After the selective culture, the cells were reseeded into 96-well plates, and a human OX2R-expressing cell line was obtained by limiting dilution.
The agonist effects of test substances on human OX2R were evaluated using the intracellular calcium concentration-change upon stimulation as an indicator. A day before measurement of the intracellular calcium concentrations, human OX2R-expressing cells suspended in a medium were seeded into 384-well plates at 5×10^3 cells/50 μL/well and cultured overnight in an incubator set at 37° C. and 5% CO2. After incubation, the medium was removed and replaced with 20 μL of a loading buffer. […]

Structure (SMILES) | Act. (%): activation rate of test substance [%]
CONC(=O)[C@@]1(Cc2cccc(-c3ncccn3)c2)CC[C@H](NS(C)(=O)=O)C1 (relative stereo) [Example 29, (1R*,3S*)—N-Methoxy-3-(methylsulfonamido)-1-(3-(pyrimidin-2-yl)benzyl)cyclopentane-1-carboxamide] | 47
CN(O)C(=O)[C@@]1(Cc2cccc(-c3ncccn3)c2)CC[C@H](NS(C)(=O)=O)C1 (relative stereo) [Example 30, (1R*,3S*)—N-Hydroxy-N-methyl-3-(methylsulfonamido)-1-(3-(pyrimidin-2-yl)benzyl)cyclopentane-1-carboxamide] | 48
CON(C)C(=O)[C@@]1(Cc2cccc(-c3ncccn3)c2)CC[C@H](NS(=O)(=O)C2(C)CC2)C1 (relative stereo) [Example 31, (1R*,3S*)—N-Methoxy-N-methyl-3-((1-methylcyclopropane)-1-sulfonamido)-1-(3-(pyrimidin-2-yl)benzyl)cyclopentane-1-carboxamide] | 107
CON(C)C(=O)[C@@]1(Cc2cccc(-c3ncccn3)c2)C[C@@H](F)[C@H](NS(C)(=O)=O)C1 (relative stereo) [Example 32, (1R*,3R*,4R*)-3-Fluoro-N-methoxy-N-methyl-4-(methylsulfonamido)-1-(3-(pyrimidin-2-yl)benzyl)cyclopentane-1-carboxamide] | 89
CON(C)C(=O)[C@@]1(Cc2cccc(-c3ncccn3)c2)C[C@H](F)[C@H](NS(C)(=O)=O)C1 (relative stereo) [Example 33] | 83
CON(C)C(=O)[C@@]1(Cc2ccc(F)c(-c3ncc(F)cn3)c2)C[C@H](F)[C@H](NS(=O)(=O)N(C)C)C1 (relative stereo) [Example 34, (1R*,3R*,4S*)-3-((N,N-Dimethylsulfamoyl)amino)-4-fluoro-1-(4-fluoro-3-(5-fluoropyrimidin-2-yl)benzyl)-N-methoxy-N-methylcyclopentane-1-carboxamide] | 90
CON(C)C(=O)[C@@]1(Cc2cccc(-c3ncc(F)cn3)c2)C[C@H](F)[C@H](NS(=O)(=O)N(C)C)C1 (relative stereo) [Example 35, (1R*,3R*,4S*)-3-((N,N-Dimethylsulfamoyl)amino)-4-fluoro-1-(3-(5-fluoropyrimidin-2-yl)benzyl)-N-methoxy-N-methylcyclopentane-1-carboxamide] | 92
CCS(=O)(=O)N[C@@H]1C[C@@](Cc2ccc(F)c(-c3ncc(F)cn3)c2)(C(=O)N(C)OC)C[C@@H]1F (relative stereo) [Example 36, (1R*,3R*,4S*)-3-(Ethylsulfonamido)-4-fluoro-1-(4-fluoro-3-(5-fluoropyrimidin-2-yl)benzyl)-N-methoxy-N-methylcyclopentane-1-carboxamide] | 84
CON(C)C(=O)[C@@]1(Cc2cc(-c3ncc(F)cn3)ccc2F)C[C@H](F)[C@H](NS(C)(=O)=O)C1 (relative stereo) [Example 37, (1R*,3S*,4R*)-3-Fluoro-1-(2-fluoro-5-(5-fluoropyrimidin-2-yl)benzyl)-N-methoxy-N-methyl-4-(methylsulfonamido)cyclopentane-1-carboxamide] | 90
CON(C)C(=O)[C@@]1(Cc2cc(-c3ncccn3)ccc2F)C[C@H](F)[C@H](NS(=O)(=O)C(F)(F)F)C1 (relative stereo) [Example 38, (1R*,3S*,4R*)-3-Fluoro-1-(2-fluoro-5-(pyrimidin-2-yl)benzyl)-N-methoxy-N-methyl-4-((trifluoromethyl)sulfonamido)cyclopentane-1-carboxamide] | 93
CON(C)C(=O)[C@@]1(Cc2ccc(O)c(-c3ncc(F)cn3)c2)C[C@H](F)[C@H](NS(C)(=O)=O)C1 (relative stereo) [Example 39, (1R*,3S*,4R*)-3-Fluoro-1-(3-(5-fluoropyrimidin-2-yl)-4-hydroxybenzyl)-N-methoxy-N-methyl-4-(methylsulfonamido)cyclopentane-1-carboxamide] | 91
CON(C)C(=O)[C@]1(Cc2cccc(-c3ncccn3)c2)C[C@@H](NS(C)(=O)=O)C(F)(F)C1 (relative stereo) [Example 40, (1R*,4R*)-3,3-Difluoro-N-methoxy-N-methyl-4-(methylsulfonamido)-1-(3-(pyrimidin-2-yl)benzyl)cyclopentane-1-carboxamide] | 88
CON(C)C(=O)[C@]1(Cc2cccc(-c3ncc(F)cn3)c2)C[C@@H](NS(=O)(=O)N(C)C)C(F)(F)C1 (relative stereo) [Example 41] | 93
CON(C)C(=O)[C@]1(Cc2ccc(F)c(-c3ncc(F)cn3)c2)C[C@@H](NS(C)(=O)=O)C(F)(F)C1 (relative stereo) [Example 42] | 87
CON(C)C(=O)[C@]1(Cc2cc(-c3ncc(F)cn3)ccc2F)C[C@@H](NS(C)(=O)=O)C(F)(F)C1 (relative stereo) [Example 43] | 93
CON(C)C(=O)[C@@]1(Cc2cccc(-c3ncc(F)cn3)c2)C[C@@H](C)[C@H](NS(C)(=O)=O)C1 (relative stereo) [Example 44, (1R*,3R*,4R*)-1-(3-(5-Fluoropyrimidin-2-yl)benzyl)-N-methoxy-N,3-dimethyl-4-(methylsulfonamido)cyclopentane-1-carboxamide] | 96
CON(C)C(=O)[C@@]1(Cc2cccc(-c3ncc(F)cn3)c2)C[C@H](C)[C@H](NS(C)(=O)=O)C1 (relative stereo) [Example 45, (1R*,3S*,4R*)-1-(3-(5-Fluoropyrimidin-2-yl)benzyl)-N-methoxy-N,3-dimethyl-4-(methylsulfonamido)cyclopentane-1-carboxamide] | 93
COCCNC(=O)[C@@]1(Cc2cccc(-c3ccccc3)c2)CC[C@H](NS(C)(=O)=O)C1 (relative stereo) [Example 69] | 44
CO[C@H]1CCN(C(=O)[C@@]2(Cc3cccc(-c4ccccc4)c3)CC[C@H](NS(C)(=O)=O)C2)C1 (relative stereo) [Example 70] | 27
CS(=O)(=O)N[C@H]1CC[C@](Cc2cccc(-c3ccccc3)c2)(C(=O)N2CCCC2C(F)(F)F)C1 (relative stereo) [Example 71, N-((1S*,3R*)-3-([1,1′-Biphenyl]-3-ylmethyl)-3-(2-(trifluoromethyl)pyrrolidine-1-carbonyl)cyclopentyl)methanesulfonamide] | 41
CS(=O)(=O)N[C@H]1CC[C@](Cc2cccc(-c3ccccc3)c2)(C(N)=O)C1 (relative stereo) [Example 72, (1R*,3S*)-1-([1,1′-Biphenyl]-3-ylmethyl)-3-(methylsulfonamido)cyclopentane-1-carboxamide] | 23
